# Measurements published in publication PMC11494662, “Insight into the Course of the Ferrier Rearrangement Used to Obtain Untypical Diosgenyl Saponins” (The Journal of Organic Chemistry, 2024).
# What was measured:
# [1] = system: prostate cancer cells (PC3 line); experiment: MTT cytotoxicity assay, PC3; assay type: cell-based, human; details: for IC50: Homo sapiens, PC-3, PC3 cells, 48 h treatment, MTT; for SI PC3 (selectivity index): ratio of IC50 for normal cell line (HaCaT) to IC50 for PC3, 48 h
# Protocol: (§1) The MTT assay was performed to specify the cytotoxicity of 7–12 and 13–18 against prostate cancer cells (PC3 line), breast cancer cells (MCF7 line), and human keratinocytes (HaCaT line). The mentioned cell lines were assayed by exposing them for 48 h to a medium containing the studied compounds over a wide range of concentrations. The IC50 values (dose of the compound which caused a 50% reduction of cell viability) and the selectivity indexes (SI), which show the ratio of IC50 for normal cell line to IC50 for cancer cell line, are shown in Table S2. An MTT assay was performed to specify the cytotoxicity of the studied compounds against breast cancer cells (MCF-7 line, ATCC), prostate cancer cells (PC3 line, ATCC) and human keratinocytes (HaCaT line, CLS). The MCF-7 cell line was cultured in an RPMI 1640 medium (Gibco, Thermo Fisher Scientific), the PC3 cell line in a F-12K medium (Gibco, Thermo Fisher Scientific), and the HaCaT cell line in a high-glucose DMEM (Gibco, Thermo Fisher Scientific). Each medium was supplemented with 10% fetal bovine serum (Gibco, Thermo Fisher Scientific) and antibiotics (penicillin and streptomycin, Gibco, Thermo Fisher Scientific). Cells were seeded at a density of 4000 per well into 96-well plates and incubated at 37 °C in a 5% CO2 atmosphere. The cells were treated with studied compounds in a concentration range of 0.1–100 μg/mL or with a vehicle (1% DMSO) as a control and subsequently incubated for 48 h. Thereafter, the MTT salt solution (3-(4,5-dimethylthiazol-2-yl)-2,5-diphenyltetrazolium bromide, VWR) was added at a concentration of 4 mg/mL (25 μL per well), and the obtained product (formazan) after 3 h of incubation was dissolved in DMSO. An EnSpire microplate reader (PerkinElmer) was used to measure absorbance at 570 nm (the reference wavelength was 660 nm). The viability of the control cells was taken as 100%. Three independent experiments were conducted in triplicate. Statistical analysis of the results and estimation of IC50 values were performed using GraphPad Prism 7 software.
# [2] = system: human keratinocytes (HaCaT line); experiment: MTT cytotoxicity assay, HaCaT; assay type: cell-based; details: Homo sapiens, HaCaT normal cells, 48 h treatment
# Protocol: as §1
# [3] = system: E. faecium ATCC 29212; experiment: MIC, broth dilution method; assay type: cell-based; details: Enterococcus faecium, ATCC29212; MHB II, 18 h, 37 °C; read-out: Minimum inhibitory concentration E. faecium ATCC 29212
# Protocol: (§2) MIC was determined with the dilution method in Mueller–Hinton II broth (MHB II) on 96-well polystyrene plates. The reference strains (Polish Academy of Sciences, Wroclaw, Poland) of Gram-positive bacteria (Enterococcus faecium ATCC 29,212, S. aureus ATCC 6538, S. aureus ATCC 43,300, S. aureus ATCC 12,598, S. aureus ATCC 25,923, S. aureus, ATCC 33,591, Staphylococcus epidermidis ATCC 14,990) and Gram-negative bacteria (Acinetobacter baumanii ATCC 23,506, Escherichia coli ATCC 25,922, Klebsiella pneumoniae ATCC 700,603, Pseudomonas aeruginosa ATCC 9027) were suspended in MHB II medium to initial inoculum of 10^5 cfu/mL. The microbes were exposed to graded concentrations of tested compounds (range 0.5–256 mg/L) for 18 h at 37 °C under aerobic conditions. The compounds were dissolved in DMSO and then diluted with PBS. […] MIC was taken as the lowest concentration at which no microbial growth was observed. The experiments were performed in triplicate.
# [4] = system: S. aureus ATCC 33591; experiment: MIC, broth dilution method; assay type: cell-based; details: Staphylococcus aureus, ATCC33591; MHB II, 18 h, 37 °C; read-out: Minimum inhibitory concentration S. aureus ATCC 33591
# Protocol: as §2
# [5] = system: S. aureus ATCC 6538; experiment: MIC, broth dilution method; assay type: cell-based; details: Staphylococcus aureus, ATCC6538; MHB II, 18 h, 37 °C; read-out: Minimum inhibitory concentration S. aureus ATCC 6538
# Protocol: as §2
# [6] = system: S. aureus ATCC 25923; experiment: MIC, broth dilution method; assay type: cell-based; details: Staphylococcus aureus, ATCC25923; MHB II, 18 h, 37 °C; read-out: Minimum inhibitory concentration S. aureus ATCC 25923
# Protocol: as §2
# [7] = system: S. epidermidis ATCC 14990; experiment: MIC, broth dilution method; assay type: cell-based; details: Staphylococcus epidermidis, ATCC14990; MHB II, 18 h, 37 °C; read-out: Minimum inhibitory concentration S. epidermidis ATCC 14990
# Protocol: as §2
# [8] = system: S. aureus ATCC 12598; experiment: MIC, broth dilution method; assay type: cell-based; details: Staphylococcus aureus, ATCC12598; MHB II, 18 h, 37 °C; read-out: Minimum inhibitory concentration S. aureus ATCC 12598
# Protocol: as §2
# [9] = system: S. aureus ATCC 43300; experiment: MIC, broth dilution method; assay type: cell-based; details: Staphylococcus aureus, ATCC43300; MHB II, 18 h, 37 °C; read-out: Minimum inhibitory concentration S. aureus ATCC 43300
# Protocol: as §2
# [10] = system: breast cancer cells (MCF-7 line); experiment: MTT cytotoxicity assay, MCF7; assay type: cell-based, human; details: for IC50: Homo sapiens, MCF7 cells, 48 h treatment, MTT; for SI MCF7 (selectivity index): ratio of IC50 for normal cell line (HaCaT) to IC50 for MCF7, 48 h
# Protocol: as §1
SMILES,IC50 [1] [µM],SI PC3 (selectivity index) [1],IC50 [2] [µM],MIC [3] [µg/mL],MIC [4] [µg/mL],MIC [5] [µg/mL],MIC [6] [µg/mL],MIC [7] [µg/mL],MIC [8] [µg/mL],MIC [9] [µg/mL],IC50 [10] [µM],SI MCF7 (selectivity index) [10],SI MCF7 (selectivity index) ([10]; listed as 12)
"C[C@@H]1CC[C@@]2(OC1)O[C@H]1C[C@H]3[C@@H]4CC=C5C[C@@H](O[C@H]6C=C[C@H](O)[C@H](C)O6)CC[C@]5(C)[C@H]4CC[C@]3(C)[C@H]1[C@@H]2C [10α, Diosgenyl 2,3,6-Trideoxy-α-L-threo-hex-2-enopyranoside]",49.7,1.02,50.9,> 256,> 256,> 256,> 256,> 256,> 256,> 256,57.6,0.88,
"C[C@@H]1CC[C@@]2(OC1)O[C@H]1C[C@H]3[C@@H]4CC=C5C[C@@H](O[C@H]6CC[C@@H](O)[C@H](C)O6)CC[C@]5(C)[C@H]4CC[C@]3(C)[C@H]1[C@@H]2C [15α, Diosgenyl 2,3,6-Trideoxy-α-L-erythro-hexopyranoside]",26.5,,56.9,> 256,> 256,256,256,> 256,> 256,> 256,87.1,,
C[C@@H]1CC[C@@]2(OC1)O[C@H]1C[C@H]3[C@@H]4CC=C5C[C@@H](O[C@@H]6C=C[C@@H](O)CO6)CC[C@]5(C)[C@H]4CC[C@]3(C)[C@H]1[C@@H]2C [12β],27.9,,57.9,> 256,> 256,256,> 256,> 256,> 256,> 256,35.6,ca. 2,1.62
"C[C@@H]1CC[C@@]2(OC1)O[C@H]1C[C@H]3[C@@H]4CC=C5C[C@@H](O[C@@H]6C=C[C@H](O)[C@@H](CO)O6)CC[C@]5(C)[C@H]4CC[C@]3(C)[C@H]1[C@@H]2C [7α, Diosgenyl 2,3-Dideoxy-α-D-erythro-Hex-2-enopyranoside]",16.8,1.20,20.2,256,> 256,256,> 256,256,> 256,> 256,56.1,0.36,
"C[C@@H]1CC[C@@]2(OC1)O[C@H]1C[C@H]3[C@@H]4CC=C5C[C@@H](O[C@H]6C=C[C@@H](O)[C@H](C)O6)CC[C@]5(C)[C@H]4CC[C@]3(C)[C@H]1[C@@H]2C [9α, Diosgenyl 2,3,6-Trideoxy-α-L-erythro-hex-2-enopyranoside]",25.4,1.71,43.4,> 256,> 256,> 256,> 256,> 256,> 256,> 256,183,0.24,
C[C@@H]1CC[C@@]2(OC1)O[C@H]1C[C@H]3[C@@H]4CC=C5C[C@@H](OC6CC[C@H](O)CO6)CC[C@]5(C)[C@H]4CC[C@]3(C)[C@H]1[C@@H]2C (stereo partly drawn) [17β],23.2,1.46,33.9,> 256,> 256,256,> 256,> 256,> 256,> 256,26.3,1.29,
"C[C@@H]1CC[C@@]2(OC1)O[C@H]1C[C@H]3[C@@H]4CC=C5C[C@@H](O[C@H]6CC[C@H](O)[C@H](C)O6)CC[C@]5(C)[C@H]4CC[C@]3(C)[C@H]1[C@@H]2C [16α, Diosgenyl 2,3,6-Trideoxy-α-L-threo-hexopyranoside]",29.9,1.02,30.6,> 256,> 256,> 256,> 256,> 256,> 256,> 256,36.6,0.84,
"C[C@@H]1CC[C@@]2(OC1)O[C@H]1C[C@H]3[C@@H]4CC=C5C[C@@H](O[C@@H]6CC[C@H](O)[C@@H](CO)O6)CC[C@]5(C)[C@H]4CC[C@]3(C)[C@H]1[C@@H]2C [13α, Diosgenyl 2,3-Dideoxy-α-D-erythro-hexopyranoside]",22.5,0.96,21.6,> 256,> 256,> 256,> 256,> 256,> 256,> 256,38.6,0.56,
C[C@@H]1CC[C@@]2(OC1)O[C@H]1C[C@H]3[C@@H]4CC=C5C[C@@H](O[C@@H]6C=C[C@H](O)CO6)CC[C@]5(C)[C@H]4CC[C@]3(C)[C@H]1[C@@H]2C [11α],24.4,1.00,24.5,> 256,> 256,256,> 256,256,> 256,> 256,40.6,0.60,
